# Measured values as given in US10851080B2, “Methods of treatment using pyrrolidinyl urea, thiourea, guanidine and cyanoguanidine compounds” (Array BioPharma Inc., priority 2012, dated 2020).
# Legend:
# [1] = target: His-tagged recombinant human TrkA (Homo sapiens (Human), UniProt P04629); assay: TrkA LanthaScreen Eu Kinase Binding Assay; details: averaged IC50, TrkA binding assay of Example A; read-out: TrkA Enzyme IC50
# Experimental: TrkA binding activity was determined in a TrkA LanthaScreen™ Eu Kinase Binding Assay. 5 nM His-tagged recombinant human TrkA (6HIS tagged cytoplasmic domain from Invitrogen, Catalog No. PV3144) was incubated with 4 nM Alexa-Fluor® Tracer 236 (Invitrogen Cat. No. PV5592), 2 nM biotinylated anti-His (Invitrogen Cat. No. PV6090), and 2 nM europium-labeled Streptavidin (Invitrogen Cat. No. PV5899), in buffer (25 mM MOPS, pH 7.5, 5 mM MgCl2, 0.005% Triton X-100). Three fold serial dilutions of compounds of the invention in DMSO were added to a final percentage of 2% DMSO. After 60-minute incubation at 22° C., the reaction was measured using the EnVision mutlimode plate reader (PerkinElmer) via TR-FRET dual wavelength detection at […]. The percent of control was calculated using a ratiometric emission factor. The IC50 values were determined by fitting a four parameter model to the percent of control data.
# Table A provides averaged IC50 values for compounds of the invention when tested in the assay of Example A, where A represents an averaged IC50 value <100 nM.
# off-target kinases = assay: KinaseProfiler full kinase panel (overall); assay type: biochemical; details: 10 μM; for activity against off-target kinases: full kinase panel; for selectivity for inhibiting TrkA versus other kinases in the panel: panel of about 230 kinases
# Experimental: Two representative compounds (Example 2, 14) of the invention were tested for off-target kinase activity at a concentration of 10 μM by Millipore, Inc. in their KinaseProfiler™ service against all the kinases available in their full kinase panel. These compounds were run in duplicate at a concentration of ATP near the Km for each individual kinase according to Millipore's specifications. The results are shown in Table B. Data are reported as percent of control (POC) and are the average of the two replicates.
# Such a drug profile would represent a safer approach to treating pain, inflammation, cancer and certain skin diseases than has been previously reported.
# Chain of His-tagged recombinant human TrkA (P04629 440-796): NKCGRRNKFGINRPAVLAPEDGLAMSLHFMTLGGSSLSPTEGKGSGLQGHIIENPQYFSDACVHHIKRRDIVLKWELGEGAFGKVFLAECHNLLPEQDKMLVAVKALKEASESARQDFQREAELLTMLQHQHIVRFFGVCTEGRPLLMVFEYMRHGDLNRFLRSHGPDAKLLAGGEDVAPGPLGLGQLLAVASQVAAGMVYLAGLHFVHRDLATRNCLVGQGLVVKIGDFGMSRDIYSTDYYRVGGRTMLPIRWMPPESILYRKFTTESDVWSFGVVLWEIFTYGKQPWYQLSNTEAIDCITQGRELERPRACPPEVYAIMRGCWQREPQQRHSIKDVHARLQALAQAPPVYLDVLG
IC50 [1] [µM],activity against off-target kinases (off-target kinases),selectivity for inhibiting TrkA versus other kinases in the panel (off-target kinases),SMILES
< 0.1,,,"COCCN1C[C@@H](NC(=O)Nc2c(C)c(-c3ccc(=O)n(C)c3)nn2-c2ccccc2)[C@H](c2ccc(F)c(Cl)c2)C1 (relative stereo) [Example 22, 1-(trans-4-(3-chloro-4-fluorophenyl)-1-(2-methoxyethyl)pyrrolidin-3-yl)-3-(4-methyl-3-(1-methyl-6-oxo-1,6-di hydropyridin-3-yl)-1-phenyl-1H-pyrazol-5-yl)urea]"
< 0.1,,,"COCCN1C[C@@H](NC(=O)Nc2c(C)c(-c3ccc(=O)n(C)c3)nn2-c2ccccc2)[C@H](c2ccc(Cl)c(F)c2)C1 (relative stereo) [Example 23, 1-(trans-4-(4-chloro-3-fluorophenyl)-1-(2-methoxyethyl)pyrrolidin-3-yl)-3-(4-methyl-3-(1-methyl-6-oxo-1,6-dihydropyridin-3-yl)-1-phenyl-1H-pyrazol-5-yl)urea]"
< 0.1,,,"COCCN1C[C@@H](NC(=O)Nc2c(C)c(-c3ccc(=O)n(C)c3)nn2-c2ccccc2)[C@H](c2cc(F)cc(Cl)c2)C1 (relative stereo) [Example 24, 1-(trans-4-(3-chloro-5-fluorophenyl)-1-(2-methoxyethyl)pyrrolidin-3-yl)-3-(4-methyl-3-(1-methyl-6-oxo-1,6-di hydropyridin-3-yl)-1-phenyl-1H-pyrazol-5-yl)urea]"
< 0.1,,,"COCCN1C[C@@H](NC(=O)Nc2c(C)c(-c3ccc(=O)n(C)c3)nn2-c2ccccc2)[C@H](c2cccc(Cl)c2)C1 (relative stereo) [Example 25, 1-(trans-4-(3-chlorophenyl)-1-(2-methoxyethyl)pyrrolidin-3-yl)-3-(4-methyl-3-(1-methyl-6-oxo-1,6-di hydropyridin-3-yl)-1-phenyl-1H-pyrazol-5-yl)urea]"
,largely inactive,remarkable and unexpected selectivity,"COCCN1C[C@@H](NC(=O)Nc2c(C)c(-c3ccnc(C)c3)nn2-c2ccccc2)[C@H](c2ccc(F)c(F)c2)C1 [Example 2, 1-((3S,4R)-4-(3,4-difluorophenyl)-1-(2-methoxyethyl)pyrrolidin-3-yl)-3-(4-methyl-3-(2-methylpyridin-4-yl)-1-phenyl-1H-pyrazol-5-yl)urea]"
,largely inactive,remarkable and unexpected selectivity,"COCCN1C[C@@H](NC(=O)Nc2c(C)c(-c3cnc(C)nc3)nn2-c2ccccc2)[C@H](c2cc(F)cc(F)c2)C1 [Example 14, 1-((3S,4R)-4-(3,5-difluorophenyl)-1-(2-methoxyethyl)pyrrolidin-3-yl)-3-(4-methyl-3-(2-methylpyrimidin-5-yl)-1-phenyl-1H-pyrazol-5-yl)urea]"
